Measured values from article PMC7037732, “Synthesis of Combretastatin A-4 and 3′-Aminocombretastatin A-4 derivatives with Aminoacid Containing Pendants and Study of their Interaction with Tubulin and as Downregulators of the VEGF, hTERT and c-Myc Gene Expression” (Molecules, 2020).

Columns and labels:
[1] = system: MCF-7 (breast adenocarcinoma); assay: Inhibition of cell proliferation (MTT), MCF-7; assay type: cell-based, human; details: Table 2, 48 h of treatment (footnote), average ±SD of three experiments
Source text: (§1) The ability of the synthetic compounds to inhibit cell proliferation was established by means of their IC50 values towards the tumor cell lines HT-29 (human colon adenocarcinoma), MCF-7 (breast adenocarcinoma) and A-549 (human pulmonary adenocarcinoma), as well as towards the nontumor cell line HEK-293 (human embryonic kidney cells). Results for compounds derived from CA-4 are presented in Table 1, along with the calculated selectivity indexes SIA (for HT-29 cell line), SIB (for MCF-7 cell line) and SIc (for A-549 cell line), obtained by dividing the IC50 values of the nontumor cell line (HEK-293) by those of the corresponding tumor cell line. The higher the SI index, the higher the therapeutic safety margin.
(§2) Cell culture media were purchased from Gibco (Grand Island, NY, USA). Fetal bovine serum (FBS) was a product of Harlan-Seralab (Belton, U.K.). Supplements and other chemicals not listed in this section were obtained from Sigma Chemical Co. (St. Louis, MO, USA). Plastics for cell culture were supplied by Thermo Fischer Scientific Inc., Madrid, Spain. All tested compounds were dissolved in DMSO at a concentration of 10 μg/mL and stored at −20 °C until use. HT-29, MCF-7, A-549 and HEK-293 cell lines were maintained in a Dulbecco’s modified Eagle’s medium (DMEM) containing glucose (1 g/L), glutamine (2 mM), penicillin (50 IU/mL), streptomycin (50 μg/mL) and amphotericin B (1.25 μg/mL), supplemented with 10% FBS. Cells from human non-small lung carcinoma (clone A549; ATCC n°: CCL2, MD, USA) were routinely grown at 37 °C in a humidified atmosphere of 5% CO2. Cells were maintained in a standard medium composed of RPMI 1640 (Lonza, Group Ltd., Basel, Switzerland), supplemented with 10% fetal bovine serum (FBS), 2 mM L-glutamine and 1% penicillin and streptomycin (Invitrogen). Cells were free from mycoplasma as determined by MycoAlert tests (Lonza, Group Ltd., Basel, Switzerland).
(§3) A total of 5 × 10^3 HT-29, MCF-7 or HEK-293 cells in a total volume of 100 μL of their respective growth media were incubated with serial dilutions of the tested compounds. The 3-(4,5-dimethylthiazol-2-yl)-2,5-diphenyltetrazolium bromide (MTT; Sigma Chemical Co.) dye reduction assay in a 96-well microplate was used, as previously described. […] The resulting formazan was dissolved in 150 μL of 0.04 N HCl/2-propanol and read at 550 nm. All determinations were carried out in triplicate.

[2] = system: VEGF gene; assay: VEGF gene expression by RT-qPCR in HT-29 cells; assay type: cell-based, human; details: Homo sapiens, HT-29, 48 h, control 100; for mrna remaining at 0.015 µM: 15 nM
Method: (§4) The effect on the expression of VEGF, hTERT and c-Myc genes has been studied for CA-4 and its derivatives that show selectivity indexes higher than 0.9 on the HT-29 cell line. The studied derivatives, together with the concentrations to which they have been tested, are CA-4 (15 μM); 4.1 (Gly, 5 μM); 4.5 (L-Pro, 25 μM); 4.9 (L-Met, 25 μM); 6.2 (D-Leu, 25 μM); 6.3 (D-Phe, 25 μM); 6.4 (D-Pro, 25 μM) and 6.5 (D-Ser, 10 μM). The expression of the genes was determined by RT-qPCR methodology, as described in the Materials and Methods section.
(§5) As regards AmCA-4 derivatives, the effect on the expression of the VEGF, hTERT and c-Myc genes has been studied on those that show IC50 in the low nanomolar range on the HT-29 cell line and/or on compounds whose selectivity indexes with respect to this cell line are higher than 1. The studied compounds, together with the concentrations to which they have been tested, are: CA-4 (15 μM), AmCA-4 (15 nM), 7.1 (7 nM), 7.2 (1.5 nM), 7.3 (4 nM), 7.4 (15 nM), 7.5 (2 nM), 7.7 (7 nM), 7.8 (15 nM), 7.9 (30 nM), 8.1 (7 nM), 8.2 (3 nM), 8.3 (10 nM), 8.4 (1.5 nM), 8.5 (4 nM), 8.7 (7 nM), 8.8 (3 nM) and 8.9 (4 nM).
(§6) HT-29 cells at 70–80% confluence were collected, and 1.5 × 10^5 cells were placed in a six-well plate in 1.5 mL of the medium. After 24 h, cells were incubated with the corresponding compounds for 48 h. Cells were collected, and the total cellular RNA from the HT-29 cells was isolated using an Ambion RNA Extraction Kit, according to the manufacturer’s instructions. The cDNA was synthesized by MMLV-RT with […] of extracted RNA and oligo(dT)15, according to the manufacturer’s instructions. Genes were amplified by a thermal cycler and StepOnePlus™ TaqMan® probes. TaqMan® Gene Expression Master Mix Fast, containing the appropriate buffer for the amplification conditions, dNTPs, thermostable DNA polymerase enzyme and a passive reference probe, was used. To amplify each of the genes, the predesigned primers sold by Life Technologies TaqMan® Gene Expression Assays Hs99999903-m1 (β-actin), Hs00900055-m1 (VEGF), Hs00972646-m1 (hTERT) and Hs00153408-m1 (c-Myc) were used.

[3] = system: hTERT gene; assay: hTERT gene expression by RT-qPCR in HT-29 cells; assay type: cell-based, human; details: Homo sapiens, HT-29, 48 h, control 100; for mrna remaining at 0.015 µM: 15 nM
Method: as §4, §5, §6

[4] = system: HEK-293 (human embryonic kidney cells); assay: Inhibition of cell proliferation (MTT), nontumor HEK-293; assay type: cell-based; details: Table 2, 48 h of treatment (footnote), average ±SD of three experiments
Source text: as §1, §2, §3

[5] = system: purified tubulin; assay: Critical concentration (CrC) for the assembly of purified tubulin in GAB; assay type: biochemical; details: compound 27.5 μM, tubulin 25 μM, glycerol (GAB) and GTP assembly buffer; control 7.9 ± 1.2
Method: The effect on the self-assembly of tubulin was determined by measuring the critical concentration (CrC).

[6] = system: A-549 (human pulmonary adenocarcinoma); assay: Inhibition of cell proliferation (MTT), A-549; assay type: cell-based; details: Homo sapiens, A549, 48 h, Table 2; 48 h of treatment (footnote); average ±SD of three experiments
Source text: as §1
as §2, with “Switzerland). […]” for “Switzerland).”

[7] = system: c-Myc gene; assay: c-Myc gene expression by RT-qPCR in HT-29 cells; assay type: cell-based, human; details: Homo sapiens, HT-29, 48 h, control 100; for mrna remaining at 0.015 µM: 15 nM
Method: as §4, §5, §6

[8] = system: HT-29 (human colon adenocarcinoma); assay: Inhibition of cell proliferation (MTT), HT-29; assay type: cell-based; details: Homo sapiens, HT-29, 48 h, Table 2; 48 h of treatment (footnote); average ±SD of three experiments
Source text: as §1, §2, §3

[9] = system: tubulin; assay: In vitro tubulin polymerization by turbidimetry (It50); assay type: biochemical; details: turbidimetry at 350 nm, 37 °C; for It50 (time required to reach 50% of the polymerization): control 16.6 ± 1.0
Method: Figure 3 also includes polymerization curves in the presence of CA-4, AmCA-4 and paclitaxel. This test was also performed using paclitaxel, a microtubule stabilizing agent, as a control for the complete formation of microtubules (see Figure 3).

[10] = system: A-549 cells; assay: Cell cycle distribution by flow cytometry; assay type: cell-based, human; details: A-549, 24 h, 0.5 µM
Method: The effects of some CA-4 derivatives on the cell cycle were evaluated in A-549 cells.
The effects of some AmCA-4 derivatives on the cell cycle were also evaluated in A-549 cells.
The supernatant and trypsinated cells were harvested and then centrifuged (1200 rpm, 5 min, 4 °C). The cell pellet was resuspended in 1 mL of cold 70% ethanol for 30 min at −20 °C. Cells were centrifuged (2000 rpm, 5 min, 4 °C) to remove ethanol, and then the cell pellet was resuspended in the staining mix containing 50 µg/mL propidium iodide (Molecular Probes, France) and 100 µg/mL RNAse A (Sigma, France) in PBS for 20 min at room temperature in darkness. Samples were analyzed on a Becton Dickinson FACScan flow cytometer using the CellQuest software, which was also used to determine the percentage of cells in the G2/M phases of the cell cycle. PI was excited at 488 nm, and fluorescence analyzed at 620 nm on channel Fl-2.

Row | SMILES | IC50 ([1]; Homo sapiens, MCF7, 48 h) | IC50 ([4]; Homo sapiens, HEK293, 48 h) | CrC (critical concentration) [5] | IC50 [6] | IC50 [8] | It50 (time required to reach 50% of the polymerization) [9] | other results
1 | COc1ccc(/C=C\c2cc(OC)c(OC)c(OC)c2)cc1NC(=O)[C@@H](NC(=O)OCC1c2ccccc2-c2ccccc21)C(C)C [Compound 7.3] | 100 ± 50 nM | 60 ± 20 nM | 6.9 ± 0.3 µM | 870 ± 60 nM | 130 ± 40 nM |  | mrna remaining at 0.004 µM ([2]; 4 nM): 23%; mrna remaining at 0.004 µM ([3]; 4 nM): > 100%; mrna remaining at 0.004 µM ([7]; 4 nM): 63%
2 | COc1ccc(/C=C\c2cc(OC)c(OC)c(OC)c2)cc1NC(=O)[C@H](CC(C)C)NC(=O)OCC1c2ccccc2-c2ccccc21 [Compound 7.4] | 9 ± 2 nM | 14 ± 3 nM | 9.9 ± 0.8 µM | 490 ± 13 nM | 23 ± 10 nM |  | mrna remaining at 0.015 µM [2]: 58%; mrna remaining at 0.015 µM [3]: 96%; mrna remaining at 0.015 µM [7]: 94%
3 | COc1ccc(/C=C\c2cc(OC)c(OC)c(OC)c2)cc1NC(=O)[C@@H](NC(=O)OCC1c2ccccc2-c2ccccc21)C(C)O (some centres unmarked) [Compound 7.7] | 25 ± 12 nM | 13 ± 2 nM | 12.0 ± 0.3 µM | 422 ± 8 nM | 9 ± 3 nM | 19.2 ± 0.3 min | mrna remaining at 0.007 µM ([2]; 7 nM): 37%; mrna remaining at 0.007 µM ([3]; 7 nM): < 70%; mrna remaining at 0.007 µM ([7]; 7 nM): 56%
4 | COc1ccc(/C=C\c2cc(OC)c(OC)c(OC)c2)cc1NC(=O)[C@H](Cc1ccc(O)cc1)NC(=O)OCC1c2ccccc2-c2ccccc21 [Compound 7.8] | 12 ± 2 nM | 16 ± 2 nM | 10.1 ± 1.1 µM | 8900 ± 1200 nM | 18 ± 5 nM |  | mrna remaining at 0.015 µM [2]: 51%; mrna remaining at 0.015 µM [3]: 76%; mrna remaining at 0.015 µM [7]: > 100%
5 | COc1ccc(/C=C\c2cc(OC)c(OC)c(OC)c2)cc1NC(=O)[C@@H](N)CC(C)C [Compound 8.4] |  |  | 8.3 ± 0.3 µM | 167 ± 23 nM |  |  | mrna remaining at 0.0015 µM ([2]; 1.5 nM): 67%; G0/G1 [10]: 35 ± 1%; G2/M [10]: 48 ± 1%; S [10]: 17 ± 2%; mrna remaining at 0.0015 µM ([3]; 1.5 nM): 73%; mrna remaining at 0.0015 µM ([7]; 1.5 nM): 48%
6 | COc1ccc(/C=C\c2cc(OC)c(OC)c(OC)c2)cc1NC(=O)[C@@H](N)Cc1ccc(O)cc1 [Compound 8.8] | < 5 nM | < 5 nM | 7.7 ± 0.8 µM | 206 ± 20 nM |  |  | IC50 [1]: 4.9 ± 0.2 nM; mrna remaining at 0.003 µM ([2]; 3 nM): 72%; G0/G1 [10]: 30 ± 2%; G2/M [10]: 52 ± 3%; S [10]: 18 ± 1%; mrna remaining at 0.003 µM ([3]; 3 nM): 46%; IC50 [4]: 2.7 ± 1.4 nM; mrna remaining at 0.003 µM ([7]; 3 nM): 42%
7 | COc1ccc(/C=C\c2cc(OC)c(OC)c(OC)c2)cc1NC(=O)[C@H]1CCCN1C(=O)OCC1c2ccccc2-c2ccccc21 [Compound 9.4] | 5300 ± 1100 nM | 3100 ± 1100 nM | 11.4 ± 0.2 µM | 12800 ± 800 nM | 5300 ± 300 nM | 16.5 ± 0.3 min | 
8 | CC(=O)O[C@H]1C(=O)[C@@]2(C)[C@H]([C@H](OC(=O)c3ccccc3)[C@]3(O)C[C@H](OC(=O)[C@H](O)[C@@H](NC(=O)c4ccccc4)c4ccccc4)C(C)=C1C3(C)C)[C@]1(OC(C)=O)CO[C@@H]1C[C@@H]2O [Paclitaxel, paclitaxel, reference compound] |  |  |  |  |  | 3.2 ± 0.4 min | time to reach the plateau phase of polymerization [9]: 30 min; Effect on in vitro tubulin polymerization ([9]; result in words): promotes tubulin polymerization
